Test results reported in PMC5742070 (Xenobiotica; the fate of foreign compounds in biological …, 2020).

What was measured:
[1] = system: Caco-2 cells; conditions: ref Gertz et al., 2013; cited from earlier work
[2] = substrate related parameter; ref Kotegawa et al., 2002, Matsuda et al., 2012; cited from earlier work
[3] = system: CYP3A; conditions: substrate related parameter; ref Kirby et al., 2011; cited from earlier work
[4] = system: CYP3A; assay: MDZ kinetics used for initial estimates; type: biochemical, rat

Compound	Papp [1]	Fg (fraction escaping gut) [2]	fm (fraction metabolized by CYP3A) [3]	kcat (k3) ([4]; initial estimate from experimental samples without inhibitor)	Km ([4]; rat, liver microsomes)
CC[C@H]1OC(=O)[C@H](C)[C@@H](O[C@H]2C[C@@](C)(OC)[C@@H](O)[C@H](C)O2)[C@H](C)[C@@H](O[C@@H]2O[C@H](C)C[C@H](N(C)C)[C@H]2O)[C@](C)(O)C[C@@H](C)C(=O)[C@H](C)[C@@H](O)[C@]1(C)O [ERY, erythromycin]	0.44 ×10⁻⁶ cm/s				
Cc1ncc2n1-c1ccc(Cl)cc1C(c1ccccc1F)=NC2 [MDZ, midazolam]	32.4 ×10⁻⁶ cm/s	0.75	0.93	approx. 10 min^−1	10 µM
